The target in series [1] is T1, human SIDT1 (hSIDT1) (Homo sapiens, UniProt Q9NXL6).
T1 construct: full length; expressed in Expi293F cells by baculovirus; digitonin extraction, GDN micelle; N-glycosylated homodimer
T1 sequence (Q9NXL6 20-827): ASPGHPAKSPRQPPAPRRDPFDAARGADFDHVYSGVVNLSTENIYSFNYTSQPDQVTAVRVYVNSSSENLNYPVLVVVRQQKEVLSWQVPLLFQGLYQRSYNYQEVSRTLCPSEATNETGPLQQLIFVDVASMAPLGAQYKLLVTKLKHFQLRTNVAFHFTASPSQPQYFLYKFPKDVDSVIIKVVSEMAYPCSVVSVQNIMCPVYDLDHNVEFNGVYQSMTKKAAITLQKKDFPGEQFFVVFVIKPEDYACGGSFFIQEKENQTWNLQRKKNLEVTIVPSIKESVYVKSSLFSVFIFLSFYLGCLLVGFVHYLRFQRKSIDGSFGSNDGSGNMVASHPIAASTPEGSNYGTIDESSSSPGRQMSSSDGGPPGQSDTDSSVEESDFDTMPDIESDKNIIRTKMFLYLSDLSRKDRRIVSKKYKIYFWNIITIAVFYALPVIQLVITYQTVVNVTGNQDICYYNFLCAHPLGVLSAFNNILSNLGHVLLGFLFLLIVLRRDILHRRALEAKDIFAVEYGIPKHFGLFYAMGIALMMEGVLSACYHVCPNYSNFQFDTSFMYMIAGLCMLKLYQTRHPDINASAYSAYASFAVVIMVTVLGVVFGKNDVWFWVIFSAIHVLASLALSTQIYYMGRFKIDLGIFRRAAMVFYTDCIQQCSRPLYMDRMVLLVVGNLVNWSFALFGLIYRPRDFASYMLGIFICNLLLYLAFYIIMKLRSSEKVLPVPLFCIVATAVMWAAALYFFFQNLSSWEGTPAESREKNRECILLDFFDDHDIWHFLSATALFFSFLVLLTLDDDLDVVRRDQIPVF
Put plainly: TLC fluorescence ceramidase assay. The format is biochemical. As to conditions: labelled compound; 10 mM methyl beta-cyclodextrin required (cholesterol depletion); pH 8.0, 0.01% GDN, 37 °C, 3 h.

For series [2], the target named is T1, human SIDT1 (hSIDT1). Kind of series: cryo-EM structure, […] A; GC/MS of purified protein. It counts as binding. As to conditions: endogenous, co-purified; allosteric; TM5/TM6/TM7 pocket at intracellular side; two molecules per protomer described (CLR1, CLR2); GDN, pH 6.0.
Series [3] addresses T2, human SIDT1 full length WT (Homo sapiens, UniProt Q9NXL6 1-827).
T2 sequence: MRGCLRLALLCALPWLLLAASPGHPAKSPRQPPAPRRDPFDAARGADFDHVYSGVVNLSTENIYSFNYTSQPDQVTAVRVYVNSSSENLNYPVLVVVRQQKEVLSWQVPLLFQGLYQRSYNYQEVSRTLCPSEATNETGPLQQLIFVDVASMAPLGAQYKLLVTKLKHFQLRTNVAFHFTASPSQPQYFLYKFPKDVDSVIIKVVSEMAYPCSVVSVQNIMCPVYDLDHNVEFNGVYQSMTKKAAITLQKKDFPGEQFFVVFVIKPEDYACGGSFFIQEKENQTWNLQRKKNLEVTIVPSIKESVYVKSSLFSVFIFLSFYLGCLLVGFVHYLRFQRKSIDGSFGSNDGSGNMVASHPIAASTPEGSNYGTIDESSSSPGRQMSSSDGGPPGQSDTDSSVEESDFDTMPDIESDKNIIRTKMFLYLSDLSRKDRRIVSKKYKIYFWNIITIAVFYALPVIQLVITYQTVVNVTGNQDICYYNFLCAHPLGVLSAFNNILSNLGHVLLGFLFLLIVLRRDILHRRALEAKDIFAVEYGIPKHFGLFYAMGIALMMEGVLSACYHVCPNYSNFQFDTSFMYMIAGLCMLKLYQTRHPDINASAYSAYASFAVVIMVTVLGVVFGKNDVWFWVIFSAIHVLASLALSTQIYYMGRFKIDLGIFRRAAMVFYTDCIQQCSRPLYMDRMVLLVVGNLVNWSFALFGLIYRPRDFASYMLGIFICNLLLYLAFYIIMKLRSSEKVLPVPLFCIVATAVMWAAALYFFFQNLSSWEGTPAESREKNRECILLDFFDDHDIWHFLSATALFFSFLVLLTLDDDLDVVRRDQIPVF
Put plainly: EMSA; pH 7.0; EMSA: 1 or 2 uM 46 bp dsRNA with 0-8 uM hSIDT1 (mutants 1-5 uM, 1 uM dsRNA, pH 5.0), 4 C, 2 h; electrophoresis in Tris-acetate buffer at pH 4.0-7.0; protein stock in 20 mM MES pH 6.0, 150 mM NaCl, 0.01% GDN. As to conditions: protein: recombinant; tags: C-terminal TEV site, FLAG, His10; chain copies: 2; blunt (implied by 46 bp). (In EMSA bound probe runs differently from free probe, usually more slowly.)

Regarding `CCCCCCCCCCCCCCC[C@@H](O)[C@H](CO)NC(=O)CCCCCCCCCCCNc1ccc([N+](=O)[O-])c2nonc12` [C12 NBD dihydroceramide], the “TLC fluorescence ceramidase assay” value at human SIDT1 (hSIDT1) [1] is “SIDT1 also harbors a ceramidase activity to ceramide and dihydroceramide”.
Regarding `CCCCCCCCCCCCC/C=C/[C@@H](O)[C@H](CO)NC(=O)CCCCCCCCCCCNc1ccc([N+](=O)[O-])c2nonc12` [C12 NBD ceramide], the “TLC fluorescence ceramidase assay” value on human SIDT1 (hSIDT1) [1] was “SIDT1 exhibited a ceramidase activity only in the presence of methyl β-cyclodextrin”.
Consider `CC(C)CCC[C@@H](C)[C@H]1CC[C@H]2[C@@H]3CC=C4C[C@@H](O)CC[C@]4(C)[C@H]3CC[C@]12C` [cholesterol], for which, on human SIDT1 (hSIDT1) [2], the “cryo-EM structure, 2.77 A; GC/MS of purified protein” value is reported as “endogenous cholesterol is assumed to be co-purified with SIDT1”.

B1: 46 bp dsRNA (dsRNA)
RNA 1: AUUCUGCGGAUUAUUUGGCAAAGGAAGCAUUGACACAUGCGCCAAU
RNA 2: AUUGGCGCAUGUGUCAAUGCUUCCUUUGCCAAAUAAUCCGCAGAAU
For B1, in series [3], the binding result is “binds”.

The values are drawn from paper PMC11137008, “Cryo-EM analysis reveals human SID-1 transmembrane family member 1 dynamics underlying lipid hydrolytic activity” (Communications Biology, 2024).
